Data published in the supplement of paper PMC10307832.

Experiments:
Assay in all cases: relative viability (nuclei count vs DMSO), 5 days (fraction); higher = more cells survive
Cediranib + Vorinostat = compound: COc1cc2c(Oc3ccc4[nH]c(C)cc4c3F)ncnc2cc1OCCCN1CCCC1 [Cediranib] + O=C(CCCCCCC(=O)Nc1ccccc1)NO [Vorinostat] (partner 1 µM)
Method in brief: (§1)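 Medians of duplicate plates are given as relative viability. That measure is the nuclei count in treated wells divided by the count in vehicle wells. Counts were taken on 4× images of lung cancer cell lines in 1536-well plates, 5 days after pin-tool dosing the day after seeding with one drug alone or a fixed anchor-drug dose plus five library-drug doses (not always all listed) in √10 steps.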

[1] = compound: O=C(C[C@H]1NCCC[C@@H]1O)Cn1cnc2cc(Br)c(Cl)cc2c1=O (racemic) [Halofuginone] + CC(=O)Nc1cccc(-n2c(=O)n(C3CC3)c(=O)c3c(Nc4ccc(I)cc4F)n(C)c(=O)c(C)c32)c1 [Trametinib] (partner 0.02 µM)
Method in brief: as §1

[2] = compound: O=C(C[C@H]1NCCC[C@@H]1O)Cn1cnc2cc(Br)c(Cl)cc2c1=O (racemic) [Halofuginone] + C[C@]1(O)C[C@@H](c2nc(-c3ccc4ccc(-c5ccccc5)nc4c3)c3c(N)nccn32)C1 [Linsitinib] (partner 1 µM)
Method in brief: as §1

[3] = compound: O=C(C[C@H]1NCCC[C@@H]1O)Cn1cnc2cc(Br)c(Cl)cc2c1=O (racemic) [Halofuginone] + Nc1nc2[nH]cc(CCc3ccc(C(=O)N[C@@H](CCC(=O)O)C(=O)O)cc3)c2c(=O)[nH]1 [Pemetrexed] (partner 0.2 µM)
Method in brief: as §1

UMC-11
relative viability (Cediranib + Vorinostat; first compound 0.04 µM): 0.396
relative viability (Cediranib + Vorinostat; first compound 0.1265 µM): 0.256
relative viability (Cediranib + Vorinostat; first compound 0.4 µM): 0.345
relative viability (Cediranib + Vorinostat; first compound 1.265 µM): 0.392
relative viability (Cediranib + Vorinostat; first compound 4 µM): 0.412
relative viability ([1]; first compound 0.001 µM): 0.8
relative viability ([1]; first compound 0.003162 µM): 0.791
relative viability ([1]; first compound 0.01 µM): 0.782
relative viability ([1]; first compound 0.03162 µM): 0.603
relative viability ([1]; first compound 0.1 µM): 0.456
relative viability ([2]; first compound 0.001 µM): 1.09
relative viability ([2]; first compound 0.003162 µM): 0.99
relative viability ([2]; first compound 0.01 µM): 1.03
relative viability ([2]; first compound 0.03162 µM): 0.963
relative viability ([2]; first compound 0.1 µM): 0.752
relative viability ([3]; first compound 0.001 µM): 0.881
relative viability ([3]; first compound 0.003162 µM): 0.834
relative viability ([3]; first compound 0.01 µM): 0.727
relative viability ([3]; first compound 0.03162 µM): 0.651
relative viability ([3]; first compound 0.1 µM): 0.443
